Results from publication PMC5035006, “Binding and Inhibition of Spermidine Synthase from Plasmodium falciparum and Implications for In Vitro Inhibitor Testing” (PLoS ONE, 2016).
Where “and” joins values, the source holds several entries; their conditions need not be identical. Equal entries are not always repeated. Where two headings read alike, the source gives them in different places. One block for each molecule: values may come before it.

Columns and labels:
PfSpdS [1] = molecular target: T1, PfSpdS (Plasmodium falciparum, UniProt Q8II73); test: biochemical; assay type: binding
T1 sequence (Q8II73 entry or part of it): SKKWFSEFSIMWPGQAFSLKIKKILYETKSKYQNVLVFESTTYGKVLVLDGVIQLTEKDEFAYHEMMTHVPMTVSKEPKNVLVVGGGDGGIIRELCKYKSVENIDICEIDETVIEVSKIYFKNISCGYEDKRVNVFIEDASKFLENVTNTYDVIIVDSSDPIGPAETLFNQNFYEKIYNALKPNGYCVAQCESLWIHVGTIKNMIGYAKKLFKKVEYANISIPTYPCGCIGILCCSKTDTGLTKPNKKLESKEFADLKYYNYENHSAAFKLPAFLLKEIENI
Experimental: Protein samples of 1 mg/ml were dialyzed overnight at 4°C against buffer containing 100 mM HEPES, pH 7.5, 250 mM NaCl. Protein concentration was determined by UV absorption (A280 = 1 for 1.3 mg/mL) immediately before loading into the calorimeter cell. […] The protein at a concentration of 0.8–30 μM was loaded into the sample cell of a VP-ITC microcalorimeter (MicroCal, Inc.). All measurements were performed at 25°C with 25 injections of the ligand of 10 μl each delivered in 20 s with 240 s delays between injections. […] Titrations of ligands into dialysis buffer were performed additionally and in case of non-negligible dilution heat the dilution profile(s) were subtracted point-by-point from the reaction profile. The dilution factor was taken into account for the binding curve fitting. Prior to titration of a second ligand into protein in presence of a first ligand, titration of dcAdoMet or MTA was carried out to saturating concentrations. […] The ligand- and buffer-subtracted integrated binding data were fitted using a single-site binding model in MicroCal Origin software.
The solution conditions for which the reported parameter values apply are 100 mM HEPES pH 7.5, 250 mM NaCl, 25°C.

human SpdS = molecular target: human SpdS; parameters: method as in PMID 21898642; conditions: 20 mM sodium phosphate pH 7.5, 50 mM NaCl, 25°C; cited from earlier work
PfSpdS [2] = molecular target: T1, PfSpdS; test: biochemical; conditions: for inhibitory effects on PfSpdS activity: at concentrations of 0.1 or 1 mM, data not shown
Experimental: The enzyme assays were incubated for 30 min at 37°C and terminated by addition of 100 μl of 0.4 M HClO4. The amount of spermidine formed was determined by HPLC with θ-phthaldialdehyde as the reagent essentially as described by Seiler & Knödgen.
Determination of IC50 values was performed in standard assays containing increasing concentrations of inhibitors.

PfSpdS [3] = molecular target: T1, PfSpdS; conditions: cited from earlier work
P. falciparum = tested on: P. falciparum; parameters: method as in PMID 15913804; conditions: at micromolar concentrations; cited from earlier work
PfSpdS [4] = molecular target: T1, PfSpdS; parameters: method as in PMID 18410081; conditions: cited from earlier work
mammalian SpdS = conditions: cited from earlier work
[5] = KD, PfSpdS saturated with MTA (ligand 1), values for ligand 2
[6] = KD, free PfSpdS, 100 mM HEPES pH 7.5, 250 mM NaCl, 25°C
[7] = PfSpdS saturated with MTA (ligand 1), values for ligand 2
[8] = PfSpdS saturated with MTA (ligand 1), values for ligand 2, read-out: KD
[9] = free PfSpdS, 100 mM HEPES pH 7.5, 250 mM NaCl, 25°C, read-out: KD
[10] = free PfSpdS, 100 mM HEPES pH 7.5, 250 mM NaCl, 25°C
[11] = free PfSpdS, listed as with footnote mark a
[12] = free PfSpdS, listed as with footnote mark b: fit was done setting N = 1

Molecule: NCCCCNCCCN [Spermidine, spermidine]
affinity for free PfSpdS (in words) (PfSpdS [1]): no measurable affinity
Kd (PfSpdS [1]; [5]): 1.2 ± 0.3 µM
Kd (PfSpdS [1]; [6]): > 300 µM
ΔH (PfSpdS [1]; [7]): -6.1 ± 0.3 kcal/mol
ΔS (PfSpdS [1]; [7]): 6.74 cal/mol/deg

Molecule: NCCCSC[C@H]1O[C@@H](n2cnc3c(N)ncnc32)[C@H](O)[C@@H]1O [decarboxylated S-adenosylhomocysteine]
Kd (human SpdS): 1.1 µM

affinity for free PfSpdS (in words) (PfSpdS [1]): no measurable affinity
ΔH (PfSpdS [1]; [7]): -3.5 ± 0.2 kcal/mol
ΔS (PfSpdS [1]; [7]): 7.84 cal/mol/deg
Kd (PfSpdS [1]; [8]): 45.3 ± 5.1 µM
Kd (PfSpdS [1]; PfSpdS saturated with dcAdoMet (ligand 1), values for ligand 2, read-out: KD): > 300 µM
Kd (PfSpdS [1]; [9]): > 300 µM
inhibitory effects on PfSpdS activity (PfSpdS [2]): no or only minor inhibitory effects
IC50 (PfSpdS [2]; read-out: IC50): > 1000 µM
Molecule: NCc1ccc(N)cc1 [4AMA, 4-aminomethylaniline]

Molecule: NCCCCN [Putrescine, putrescine]
Km (PfSpdS [3]; read-out: Km for putrescine, 29-residue-truncated PfSpdS): 52 µM
Kd (PfSpdS [1]; [5]): 59.5 ± 8.2 µM
Kd (PfSpdS [1]; [6]): > 300 µM
ΔH (PfSpdS [1]; [7]): -12.4 ± 0.9 kcal/mol
ΔS (PfSpdS [1]; [7]): -22.4 cal/mol/deg
affinity for free PfSpdS (in words) (PfSpdS [1]; free PfSpdS, detection limit KD ~ 300 μM): no measurable affinity

Molecule: 5′-methylthioadenosine [MTA]
IC50 (PfSpdS [3]; 100 μM dcAdoMet, 200 μM putrescine): 160 µM and 159 µM
Inhibition type (PfSpdS [3]): product inhibition
ΔH (PfSpdS [1]; [10]): -2.7 ± 0.3 kcal/mol
ΔS (PfSpdS [1]; [10]): 18.6 cal/mol/deg
Kd (PfSpdS [1]; [9]): 0.9 ± 0.5 µM

Molecule: C[C@H]1CC[C@H](N)CC1 [4MCHA, trans-4-methylcyclohexylamine]
Inhibition type (PfSpdS [3]): competitive inhibitor with respect to putrescine
Ki (PfSpdS [3]): 0.18 µM
inhibition of P. falciparum cell growth in vitro (in words) (P. falciparum): strongly inhibit

ΔH (PfSpdS [1]; [10]): -5.5 ± 0.2 kcal/mol
ΔS (PfSpdS [1]; [10]): 6.9 cal/mol/deg
Kd (PfSpdS [1]; [9]): 2.8 ± 0.5 µM
Inhibition type (PfSpdS [2]): mixed-type inhibition with putrescine
Ki uncompetitive (PfSpdS [2]): 12.2 µM
Ki (PfSpdS [2]; read-out: Ki competitive): 3.4 µM
IC50 (PfSpdS [2]; read-out: predicted IC50 from Eq (2)): 10 µM
Molecule: NCCCCCC(CCN)SCC1OC(n2cnc3c(N)ncnc32)C(O)C1O (stereo not drawn) [AdoDATO, S-adenosyl-3-thio-1,8-diaminooctane]

ΔH (PfSpdS [1]; [7]): -0.6 ± 0.1 kcal/mol
ΔS (PfSpdS [1]; [7]): 28.4 cal/mol/deg
Kd (PfSpdS [1]; [8]): ~0.3 µM and 0.3 µM
ΔH (PfSpdS [1]; [11]): 51.8 ± 2.5 kcal/mol
ΔS (PfSpdS [1]; [11]): 196 cal/mol/deg
Kd (PfSpdS [1]; free PfSpdS, listed as with footnote mark a, read-out: KD): 8.4 ± 0.7 µM
ΔH (PfSpdS [1]; [12]): 17.6 ± 9.0 kcal/mol
ΔS (PfSpdS [1]; [12]): 82.8 cal/mol/deg
Kd (PfSpdS [1]; free PfSpdS, listed as with footnote mark b: fit was done setting N = 1, read-out: KD): 6.1 ± 1.6 µM
Molecule: NCCCN[C@H]1CC[C@H](N)CC1 [NACD]

ΔH (PfSpdS [1]; [10]): 1.5 ± 0.3 kcal/mol
ΔS (PfSpdS [1]; [10]): 27.1 cal/mol/deg
Kd (PfSpdS [1]; [9]): 15.2 ± 8.2 µM
IC50 (PfSpdS [2]; PfSpdS assays, L. Persson, unpublished results, read-out: IC50): > 100 µM
inhibitory effects on PfSpdS activity (PfSpdS [2]): no or only minor inhibitory effects
IC50 (PfSpdS [2]; read-out: IC50): > 1000 µM
Molecule: NCCCCCc1nc2ccccc2[nH]1 [BIPA, 5-(1H-benzimidazol-2-yl)pentan-1-amine]
binding to the enzyme by NMR spectroscopy (in words) (PfSpdS [4]): bind strongly

Molecule: Cc1ccc(N)cc1 [4MAN, 4-methylaniline]
affinity for free PfSpdS (in words) (PfSpdS [1]): no measurable affinity
Kd (PfSpdS [1]; [5]): > 300 µM
Kd (PfSpdS [1]; KD, PfSpdS saturated with dcAdoMet (ligand 1), values for ligand 2): 7.7 ± 1.2 µM
Kd (PfSpdS [1]; [6]): > 300 µM
affinity to PfSpdS in presence of MTA (in words) (PfSpdS [1]; PfSpdS saturated with MTA, detection limit KD ~ 300 μM): no detectable affinity
IC50 (mammalian SpdS): 108 µM
IC50 (PfSpdS [2]): 23 µM
Ki (PfSpdS [2]): 8.2 µM
Inhibition type (PfSpdS [2]; Lineweaver-Burke plots, 0.1 mM dcAdoMet): competitive with putrescine

Molecule: C[S+](CCCN)CC1OC(n2cnc3c(N)ncnc32)C(O)C1O (stereo not drawn) [dcAdoMet, decarboxylated S-adenosylmethionine]
Kd (PfSpdS [1]; [6]): 3.7 ± 0.7 µM
ΔH (PfSpdS [1]; [10]): -2.4 ± 0.2 kcal/mol
ΔS (PfSpdS [1]; [10]): 16.7 cal/mol/deg
